Test results: ChEMBL document CHEMBL4507318, “Data for DCP probe BAY-985” (2021)

Experiments:
[1] = system: Tyrosine-protein kinase ABL1 (Homo sapiens), P00519 [F317L]
[2] = system: Tyrosine-protein kinase ABL1 (Homo sapiens), P00519 [Q252H]
[3] = biological target: Cyclin-dependent kinase 11A (Homo sapiens) (UniProt Q9UQ88)
[4] = biological target: Discoidin domain-containing receptor 2 (Homo sapiens) (UniProt Q16832)
[5] = system: Epidermal growth factor receptor (Homo sapiens), P00533 [UNDEFINED MUTATION]
[6] = biological target: Ephrin type-A receptor 5 (Homo sapiens) (UniProt P54756)
[7] = biological target: Ephrin type-A receptor 8 (Homo sapiens) (UniProt P29322)
[8] = biological target: Tyrosine-protein kinase Fes/Fps (Homo sapiens) (UniProt P07332)
[9] = biological target: Vascular endothelial growth factor receptor 1 (Homo sapiens) (UniProt P17948)
[10] = system: Receptor-type tyrosine-protein kinase FLT3 (Homo sapiens), P36888 [D835H]
[11] = system: Receptor-type tyrosine-protein kinase FLT3 (Homo sapiens), P36888 [K663Q]
[12] = system: eIF-2-alpha kinase GCN2 (Homo sapiens), Q9P2K8 [S808G]
[13] = biological target: G protein-coupled receptor kinase 4 (Homo sapiens) (UniProt P32298)
Chain of G protein-coupled receptor kinase 4 (Homo sapiens) (P32298 whole entry, looked up): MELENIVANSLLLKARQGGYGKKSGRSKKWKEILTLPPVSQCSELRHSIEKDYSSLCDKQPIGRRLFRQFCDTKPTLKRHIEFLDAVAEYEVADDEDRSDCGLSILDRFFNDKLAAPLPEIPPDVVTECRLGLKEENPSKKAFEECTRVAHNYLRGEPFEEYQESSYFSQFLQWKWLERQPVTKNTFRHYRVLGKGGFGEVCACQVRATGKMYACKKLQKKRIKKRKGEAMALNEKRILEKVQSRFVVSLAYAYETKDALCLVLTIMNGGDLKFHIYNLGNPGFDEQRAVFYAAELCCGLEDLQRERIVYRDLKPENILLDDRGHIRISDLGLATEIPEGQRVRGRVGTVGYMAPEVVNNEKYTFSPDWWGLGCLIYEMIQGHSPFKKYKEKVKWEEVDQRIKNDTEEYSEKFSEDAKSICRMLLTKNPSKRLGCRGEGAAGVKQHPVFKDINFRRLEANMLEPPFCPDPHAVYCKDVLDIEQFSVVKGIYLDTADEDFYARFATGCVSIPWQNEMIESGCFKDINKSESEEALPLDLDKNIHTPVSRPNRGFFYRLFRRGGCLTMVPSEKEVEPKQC

[14] = biological target: Insulin-like growth factor 1 receptor (Homo sapiens) (UniProt P08069)
[15] = biological target: Insulin receptor (Homo sapiens) (UniProt P06213)
[16] = biological target: Mitogen-activated protein kinase 10 (Homo sapiens) (UniProt P53779)
[17] = system: Hepatocyte growth factor receptor (Homo sapiens), P08581 [Y1235D]
[18] = biological target: Serine/threonine-protein kinase OSR1 (Homo sapiens) (UniProt O95747)
[19] = biological target: Cyclin-dependent kinase 18 (Homo sapiens) (UniProt Q07002)
[20] = system: Phosphatidylinositol 4,5-bisphosphate 3-kinase catalytic subunit alpha isoform (Homo sapiens), P42336 [I800L]
Chain of Phosphatidylinositol 4,5-bisphosphate 3-kinase catalytic subunit alpha isoform (Homo sapiens), P42336 [I800L] (P42336 whole entry I800L, canonical isoform): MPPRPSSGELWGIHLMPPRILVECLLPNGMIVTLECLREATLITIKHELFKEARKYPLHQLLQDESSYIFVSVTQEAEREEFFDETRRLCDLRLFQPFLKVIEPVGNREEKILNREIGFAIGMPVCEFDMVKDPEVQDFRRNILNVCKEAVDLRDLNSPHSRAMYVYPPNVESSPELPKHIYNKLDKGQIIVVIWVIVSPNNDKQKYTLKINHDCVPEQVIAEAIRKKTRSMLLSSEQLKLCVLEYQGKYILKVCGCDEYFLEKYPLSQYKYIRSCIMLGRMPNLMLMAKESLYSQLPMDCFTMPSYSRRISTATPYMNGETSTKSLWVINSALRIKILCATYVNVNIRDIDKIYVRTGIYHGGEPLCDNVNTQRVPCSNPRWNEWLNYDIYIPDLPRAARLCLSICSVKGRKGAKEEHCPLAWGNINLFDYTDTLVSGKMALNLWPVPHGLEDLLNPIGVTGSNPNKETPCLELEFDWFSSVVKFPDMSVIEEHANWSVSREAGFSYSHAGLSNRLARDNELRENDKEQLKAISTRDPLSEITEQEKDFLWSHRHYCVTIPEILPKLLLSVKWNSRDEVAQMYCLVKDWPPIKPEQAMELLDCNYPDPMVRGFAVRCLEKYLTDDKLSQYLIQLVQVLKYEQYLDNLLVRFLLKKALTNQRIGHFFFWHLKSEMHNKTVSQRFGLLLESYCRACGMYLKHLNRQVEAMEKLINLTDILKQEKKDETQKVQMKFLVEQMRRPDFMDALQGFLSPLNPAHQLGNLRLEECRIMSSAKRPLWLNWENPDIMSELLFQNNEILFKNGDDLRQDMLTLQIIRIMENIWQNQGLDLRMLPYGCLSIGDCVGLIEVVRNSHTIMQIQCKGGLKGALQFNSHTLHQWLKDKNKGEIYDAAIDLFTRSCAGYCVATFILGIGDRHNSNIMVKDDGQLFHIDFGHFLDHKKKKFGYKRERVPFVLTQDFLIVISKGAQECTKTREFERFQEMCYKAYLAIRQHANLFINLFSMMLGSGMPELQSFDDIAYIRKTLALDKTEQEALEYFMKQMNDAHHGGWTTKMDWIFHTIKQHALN

[21] = biological target: Phosphatidylinositol 4-kinase beta (Homo sapiens) (UniProt Q9UBF8)
[22] = biological target: Serine/threonine-protein kinase pim-3 (Homo sapiens) (UniProt Q86V86)
[23] = biological target: Protein kinase C theta type (Homo sapiens) (UniProt Q04759)
[24] = biological target: Interferon-induced, double-stranded RNA-activated protein kinase (Homo sapiens) (UniProt P19525)
[25] = biological target: Serine/threonine-protein kinase PRP4 homolog (Homo sapiens) (UniProt Q13523)
[26] = biological target: RAF proto-oncogene serine/threonine-protein kinase (Homo sapiens) (UniProt P04049)
[27] = system: Proto-oncogene tyrosine-protein kinase receptor Ret (Homo sapiens), P07949 [V804M]
Chain of Proto-oncogene tyrosine-protein kinase receptor Ret (Homo sapiens), P07949 [V804M] (P07949 whole entry V804M): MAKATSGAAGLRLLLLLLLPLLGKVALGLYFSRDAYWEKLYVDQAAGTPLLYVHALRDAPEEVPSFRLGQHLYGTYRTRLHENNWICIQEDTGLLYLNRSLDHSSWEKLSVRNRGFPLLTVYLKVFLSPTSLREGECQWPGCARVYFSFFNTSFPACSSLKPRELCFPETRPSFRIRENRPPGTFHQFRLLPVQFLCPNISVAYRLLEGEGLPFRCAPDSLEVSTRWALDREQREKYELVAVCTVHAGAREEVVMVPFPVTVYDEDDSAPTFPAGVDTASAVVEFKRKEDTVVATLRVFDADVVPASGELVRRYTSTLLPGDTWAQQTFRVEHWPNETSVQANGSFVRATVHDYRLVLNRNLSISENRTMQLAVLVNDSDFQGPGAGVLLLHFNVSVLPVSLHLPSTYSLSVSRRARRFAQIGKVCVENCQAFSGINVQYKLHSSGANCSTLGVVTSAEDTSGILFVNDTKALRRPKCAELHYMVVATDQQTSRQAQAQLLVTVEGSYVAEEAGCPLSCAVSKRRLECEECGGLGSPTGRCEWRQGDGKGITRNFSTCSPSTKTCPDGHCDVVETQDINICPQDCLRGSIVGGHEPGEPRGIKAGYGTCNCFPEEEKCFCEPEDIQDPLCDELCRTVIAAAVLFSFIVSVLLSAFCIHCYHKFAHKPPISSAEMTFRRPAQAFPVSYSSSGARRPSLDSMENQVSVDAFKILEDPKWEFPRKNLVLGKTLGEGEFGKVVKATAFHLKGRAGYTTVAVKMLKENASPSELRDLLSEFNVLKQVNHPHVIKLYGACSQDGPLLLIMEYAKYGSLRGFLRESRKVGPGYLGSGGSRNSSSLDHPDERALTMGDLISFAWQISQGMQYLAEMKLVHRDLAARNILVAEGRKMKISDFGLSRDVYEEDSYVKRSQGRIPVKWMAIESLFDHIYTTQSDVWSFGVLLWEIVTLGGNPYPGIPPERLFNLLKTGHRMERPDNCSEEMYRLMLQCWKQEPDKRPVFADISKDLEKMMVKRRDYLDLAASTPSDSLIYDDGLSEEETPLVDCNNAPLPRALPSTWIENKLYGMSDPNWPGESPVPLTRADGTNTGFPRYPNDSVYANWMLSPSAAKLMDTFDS

[28] = biological target: Receptor-interacting serine/threonine-protein kinase 1 (Homo sapiens) (UniProt Q13546)
[29] = biological target: Ribosomal protein S6 kinase alpha-6 (Homo sapiens) (UniProt Q9UK32)
[30] = biological target: Serine/threonine-protein kinase Sgk1 (Homo sapiens) (UniProt O00141)
Chain of Serine/threonine-protein kinase Sgk1 (Homo sapiens) (O00141 whole entry): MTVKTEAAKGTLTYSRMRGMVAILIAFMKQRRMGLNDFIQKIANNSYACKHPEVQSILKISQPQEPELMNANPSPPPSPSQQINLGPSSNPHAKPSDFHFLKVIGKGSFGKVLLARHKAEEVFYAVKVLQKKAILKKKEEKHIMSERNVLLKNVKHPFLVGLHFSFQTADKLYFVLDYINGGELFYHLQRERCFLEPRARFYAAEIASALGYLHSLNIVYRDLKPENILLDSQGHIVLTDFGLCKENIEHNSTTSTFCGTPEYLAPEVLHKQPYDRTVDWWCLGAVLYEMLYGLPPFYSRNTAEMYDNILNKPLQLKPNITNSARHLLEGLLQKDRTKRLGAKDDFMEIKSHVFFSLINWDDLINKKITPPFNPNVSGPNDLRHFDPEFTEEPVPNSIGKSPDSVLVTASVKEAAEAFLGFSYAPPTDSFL

[31] = biological target: NUAK family SNF1-like kinase 2 (Homo sapiens) (UniProt Q9H093)
[32] = biological target: Serine/threonine-protein kinase 36 (Homo sapiens) (UniProt Q9NRP7)
[33] = biological target: Dual specificity testis-specific protein kinase 1 (Homo sapiens) (UniProt Q15569)
[34] = biological target: BDNF/NT-3 growth factors receptor (Homo sapiens) (UniProt Q16620)
Chain of BDNF/NT-3 growth factors receptor (Homo sapiens) (Q16620 32-822 limits assumed): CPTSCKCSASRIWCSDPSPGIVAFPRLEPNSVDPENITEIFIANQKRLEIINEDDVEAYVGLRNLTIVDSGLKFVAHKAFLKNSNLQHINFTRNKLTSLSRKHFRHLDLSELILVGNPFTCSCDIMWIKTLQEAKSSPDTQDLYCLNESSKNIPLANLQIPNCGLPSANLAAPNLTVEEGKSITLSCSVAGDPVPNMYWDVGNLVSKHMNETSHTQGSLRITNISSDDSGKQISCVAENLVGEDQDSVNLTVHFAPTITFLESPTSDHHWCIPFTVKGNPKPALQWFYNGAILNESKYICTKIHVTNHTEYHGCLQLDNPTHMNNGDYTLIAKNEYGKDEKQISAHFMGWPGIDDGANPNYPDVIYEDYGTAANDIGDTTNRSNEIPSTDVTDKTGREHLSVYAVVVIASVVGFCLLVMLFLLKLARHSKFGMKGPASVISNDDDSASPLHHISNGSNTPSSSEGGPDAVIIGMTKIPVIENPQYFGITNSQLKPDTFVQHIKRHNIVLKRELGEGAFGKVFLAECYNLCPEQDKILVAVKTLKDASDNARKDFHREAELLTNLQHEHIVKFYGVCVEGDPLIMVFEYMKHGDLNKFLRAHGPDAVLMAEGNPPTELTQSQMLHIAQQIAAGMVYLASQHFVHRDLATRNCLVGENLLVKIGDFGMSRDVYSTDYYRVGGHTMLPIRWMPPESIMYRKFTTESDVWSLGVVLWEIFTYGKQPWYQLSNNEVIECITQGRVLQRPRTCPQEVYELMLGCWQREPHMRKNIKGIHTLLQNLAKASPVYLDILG

[35] = biological target: Non-receptor tyrosine-protein kinase TYK2 (Homo sapiens) (UniProt P29597)
[36] = biological target: Serine/threonine-protein kinase WNK3 (Homo sapiens) (UniProt Q9BYP7)
[37] = biological target: Serine/threonine-protein kinase 32A (Homo sapiens) (UniProt Q8WU08)
Chain of Serine/threonine-protein kinase 32A (Homo sapiens) (Q8WU08 whole entry): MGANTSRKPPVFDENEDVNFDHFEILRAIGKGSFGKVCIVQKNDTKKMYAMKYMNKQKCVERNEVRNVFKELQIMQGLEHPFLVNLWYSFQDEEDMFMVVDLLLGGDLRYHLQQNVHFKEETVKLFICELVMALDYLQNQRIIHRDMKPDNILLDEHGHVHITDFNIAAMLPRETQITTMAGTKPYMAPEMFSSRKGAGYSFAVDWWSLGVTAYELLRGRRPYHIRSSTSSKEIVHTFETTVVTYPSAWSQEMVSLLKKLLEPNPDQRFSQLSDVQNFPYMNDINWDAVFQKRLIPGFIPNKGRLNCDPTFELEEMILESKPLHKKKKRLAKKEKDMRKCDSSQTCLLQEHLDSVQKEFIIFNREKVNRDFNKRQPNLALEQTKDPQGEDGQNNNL

[38] = biological target: 5-hydroxytryptamine receptor 7 (Homo sapiens) (UniProt P34969); settings: Compound concentration 10.0 uM
[39] = biological target: D(4) dopamine receptor (Homo sapiens) (UniProt P21917); settings: Compound concentration 10.0 uM
[40] = biological target: Histamine H4 receptor (Homo sapiens) (UniProt Q9H3N8); settings: Compound concentration 10.0 uM
[41] = biological target: Alpha-1A adrenergic receptor (Homo sapiens) (UniProt P35348); settings: Compound concentration 10.0 uM
[42] = biological target: Alpha-1B adrenergic receptor (Homo sapiens) (UniProt P35368); settings: Compound concentration 10.0 uM
[43] = biological target: Muscarinic acetylcholine receptor M3 (Homo sapiens) (UniProt P20309); settings: Compound concentration 10.0 uM
Chain of Muscarinic acetylcholine receptor M3 (Homo sapiens) (P20309 whole entry, looked up): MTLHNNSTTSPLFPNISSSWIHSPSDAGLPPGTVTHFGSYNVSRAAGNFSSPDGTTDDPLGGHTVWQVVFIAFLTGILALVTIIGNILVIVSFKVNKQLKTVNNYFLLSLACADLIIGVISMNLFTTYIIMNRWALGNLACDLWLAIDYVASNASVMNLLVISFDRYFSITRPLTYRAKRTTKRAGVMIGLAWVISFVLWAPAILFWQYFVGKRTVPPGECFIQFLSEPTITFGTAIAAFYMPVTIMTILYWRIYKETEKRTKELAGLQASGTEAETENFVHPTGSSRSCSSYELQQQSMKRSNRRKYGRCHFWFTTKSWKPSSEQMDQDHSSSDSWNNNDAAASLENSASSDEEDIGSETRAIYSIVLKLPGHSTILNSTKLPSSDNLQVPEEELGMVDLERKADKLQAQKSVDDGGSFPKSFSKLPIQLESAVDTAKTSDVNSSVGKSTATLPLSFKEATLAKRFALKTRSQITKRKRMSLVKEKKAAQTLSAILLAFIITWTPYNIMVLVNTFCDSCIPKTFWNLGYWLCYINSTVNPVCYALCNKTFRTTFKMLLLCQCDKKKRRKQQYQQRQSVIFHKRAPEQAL

[44] = biological target: Muscarinic acetylcholine receptor M4 (Homo sapiens) (UniProt P08173); settings: Compound concentration 10.0 uM
[45] = biological target: Muscarinic acetylcholine receptor M5 (Homo sapiens) (UniProt P08912); settings: Compound concentration 10.0 uM
[46] = Compound concentration 1000.0 nM
[47] = Compound concentration 100.0 nM

CN(C)c1ncnc(-c2ccc3nc(Nc4cc(CN5CCN(C(=O)CC(F)(F)F)CC5)ccn4)[nH]c3c2)c1Cl [BAY-440]
inactive: residual activity [1, 46] 57% | residual activity [3, 46] 100% | residual activity [4, 46] 71% | residual activity [5, 46] 88% | residual activity [6, 46] 100% | residual activity [7, 46] 100% | residual activity [8, 46] 100% | residual activity [9, 46] 100% | residual activity [11, 46] 81% | residual activity [12, 46] 100% | residual activity [13, 46] 100% | residual activity [14, 46] 100% | residual activity [15, 46] 100% | residual activity [16, 46] 51% | residual activity [17, 46] 68% | residual activity [18, 46] 94% | residual activity [19, 46] 100% | residual activity [21, 46] 100% | residual activity [22, 46] 100% | residual activity [23, 46] 100% | residual activity [24, 46] 100% | residual activity [25, 46] 100% | residual activity [26, 46] 100% | residual activity [27, 46] 93% | residual activity [28, 46] 93% | residual activity [29, 46] 84% | residual activity [31, 46] 66% | residual activity [32, 46] 98% | residual activity [33, 46] 78% | residual activity [34, 46] 63% | residual activity [35, 46] 51% | residual activity [36, 46] 85% | residual activity [37, 46] 85% | inhibition [38] 13.4% | inhibition [39] 7.18% | inhibition [40] -2.29% | inhibition [41] 12.8% | inhibition [42] 4.51% | inhibition [43] 23.9% | inhibition [44] 4.83% | inhibition [45] 12.4%
active: residual activity [2, 46] 22% | residual activity [10, 46] 42% | residual activity [20, 46] 35% | residual activity [30, 46] 37%

C[C@H](c1ccnc(Nc2nc3ccc(-c4cc(N(C)C)ncn4)cc3[nH]2)c1)N1CCN(C(=O)CC(F)(F)F)CC1 [BAY-985]
inactive: residual activity [1, 47] 100% | residual activity [2, 47] 94% | residual activity [3, 47] 84% | residual activity [4, 47] 100% | residual activity [5, 47] 96% | residual activity [6, 47] 81% | residual activity [7, 47] 100% | residual activity [8, 47] 75% | residual activity [9, 47] 100% | residual activity [10, 47] 71% | residual activity [11, 47] 60% | residual activity [12, 47] 58% | residual activity [13, 47] 100% | residual activity [14, 47] 98% | residual activity [15, 47] 100% | residual activity [16, 47] 81% | residual activity [17, 47] 100% | residual activity [18, 47] 100% | residual activity [19, 47] 89% | residual activity [20, 47] 100% | residual activity [21, 47] 100% | residual activity [22, 47] 87% | residual activity [23, 47] 100% | residual activity [24, 47] 100% | residual activity [25, 47] 80% | residual activity [26, 47] 97% | residual activity [27, 47] 76% | residual activity [28, 47] 95% | residual activity [29, 47] 97% | residual activity [30, 47] 94% | residual activity [31, 47] 95% | residual activity [32, 47] 97% | residual activity [33, 47] 98% | residual activity [34, 47] 100% | residual activity [35, 47] 100% | residual activity [36, 47] 100% | residual activity [37, 47] 100% | inhibition [38] 16.6% | inhibition [39] 8.17% | inhibition [40] -0.75% | inhibition [41] 11.9% | inhibition [42] 2.95% | inhibition [43] -8.4% | inhibition [44] 24.7% | inhibition [45] 18.7%
